Experimental data from patent US20240368667A1, “RAPID, LABEL-FREE ANTIBIOTIC SUSCEPTIBILITY OF BACTERIA DIRECTLY FROM POSITIVE BLOOD OR BODILY FLUID/CULTURE” (priority 2021, published 2024).

How the values were obtained:
E. coli [1] = experiment: Direct flow cytometric AST (high-throughput flow cytometry, HTFC) of sucrose-recovered bacteria; type: cell-based, Escherichia coli; parameters: key to susceptibility classification, HTFC: (S) sensitive; (I) intermediate; (R) resistant; conditions: sucrose-recovered, antibiotic 4 hours (37° C.); for MIC: Escherichia coli, 4 h, read-out: Minimum inhibitory concentration, HTFC
Procedure: (§1) AST workflow using bacteria recovered directly from positive blood culture. A 1-mL aliquot of bacteria recovered using separation method 2 was diluted 10-fold in CAMHB, the OD600 adjusted to ˜0.01, and a 50 μL aliquot distributed into each well of a 96-well plate containing CAMHB with and without ceftazidime, tobramycin, and either meropenem (E. coli and P. aeruginosa) or oxacillin (S. aureus). Following Clinical and Laboratory Standards Institute (CLSI) guidelines^33, 2% sodium chloride (NaCl) was present in wells containing oxacillin to assist in the detection of methicillin-resistant S. aureus (MRSA). […] To account for observed differences in doubling and lag times, E. coli and P. aeruginosa were incubated for 4 hours at 37° C., while S. aureus was incubated for 9 hours at 35° C. After incubation, antibiotic plates were removed from the incubator and directly stored on ice (i.e. no post-processing) until high-throughput flow cytometry (BD LSRFortessa with HTS-system, BD, Franklin Lakes, NJ). No-antibiotic controls and antibiotic-treated samples were handled identically.
(§2) MIC Determination by flow cytometry. Because antibiotic effects are observed in both the position of scatter signatures (morphology changes) and count rates (growth inhibition), a modified count rate, accounting for scatter position, was used to evaluate susceptibility. Briefly, no-antibiotic control populations (triplicate) were pooled, binned, and a convex hull boundary set at 1-standard deviation above the background (not including bins with zero counts) was drawn. […] The overlap ratio, measuring changes in morphology, was then computed by dividing the number of sample events within the no-antibiotic control boundary by the total number of events within the sample. As an increase in count rate attributed to viable bacteria in antibiotic-treated samples is not scientifically meaningful, the fractional overlap was multiplied by the minimum of the control and sample count rates to generate a modified count rate accounting for antibiotic-induced morphological changes. All modified count rates were normalized by the average of the no-antibiotic controls. For automatic MIC determination, normalized count rates corresponding to n (index of predicted MIC), n+1, n+2 were iteratively fit to a linear function with a frameshift of n+1 between iterations (FIGS. 8 and 9). […] A threshold of −0.01 instead of zero was used to mitigate the influence of small fluctuations in normalized count rates on susceptibility determinations.

E. coli [2] = experiment: Broth microdilution (BMD) MIC; type: cell-based, Escherichia coli; parameters: key to susceptibility classification, BMD: (S) sensitive; (I) intermediate; (R) resistant; conditions: broth microdilution; for MIC: Escherichia coli, read-out: Minimum inhibitory concentration, BMD
Procedure: (§3) Microbroth dilution for minimum inhibitory concentrations (MIC) with and without sucrose recovery. To isolate bacteria without sucrose, culture media from positive BacT/alert FA PLUS aerobic culture bottles (bioMérieux, Durham, NC) was serially diluted and plated onto LB agar (Lennox; Sigma-Aldrich, St. Louis, MO). Bacterial suspensions were prepared by resuspending colonies in CAMHB with incubation on a MaxQ 4000 incubator shaker (Thermo Fisher Scientific, Waltham, MA) at 37° C. and ˜225 rpm for 3 hours. Bacteria recovered via Method 2 were diluted 10-fold in CAMHB. Following incubation or sucrose recovery and dilution, bacterial suspensions were adjusted to ˜0.004 OD600 with CAMHB and a 50-μL aliquot distributed to each well of a 96-well plate containing CAMHB with and without clinically relevant antibiotics (2-fold dilution series). Gram-negative plates included: ceftazidime (3rd generation cephalosporin, RPI corp., Mount Prospect, IL), cefepime (4th generation cephalosporin, Chem-Impex Int'l, Wood Dale, IL), meropenem (carbapenem, Tokyo Chemical Industry, Tokyo, Japan), levofloxacin (quinolone, Alfa Aesar, Haverhill, MA), and tobramycin (aminoglycoside, MP Biomedicals LLC, Santa Ana, CA), while S. aureus plates contained: oxacillin (beta-lactam, Sigma-Aldrich, St. Louis, MO), vancomycin (glycopeptide, Santa Cruz Biotechnology, Dallas, TX), erythromycin (macrolide, Sigma-Aldrich, St. Louis, MO), clindamycin ([…]), and ciprofloxacin (fluoroquinolone, Sigma-Aldrich, St. Louis, MO). Antibiotic plates were incubated at 37° C. for 16-20 hours (gram-negative) or 35° C. for 24 hours (S. aureus), at which time, plates were removed from the incubator and visually inspected for bacterial growth. The MIC was set at the lowest antibiotic concentration at which no growth was detected.

P. aeruginosa [3] = experiment: Direct flow cytometric AST (high-throughput flow cytometry, HTFC) of sucrose-recovered bacteria; type: cell-based, Pseudomonas aeruginosa; parameters: key to susceptibility classification, HTFC: (S) sensitive; (I) intermediate; (R) resistant; conditions: for MIC: Pseudomonas aeruginosa, read-out: Minimum inhibitory concentration, HTFC
Procedure: as §1, §2

P. aeruginosa [4] = experiment: Broth microdilution (BMD) MIC; type: cell-based, Pseudomonas aeruginosa; parameters: key to susceptibility classification, BMD: (S) sensitive; (I) intermediate; (R) resistant; conditions: broth microdilution; for MIC: Pseudomonas aeruginosa, read-out: Minimum inhibitory concentration, BMD
Procedure: as §3

CC(C)(O/N=C(\C(=O)N[C@@H]1C(=O)N2C(C(=O)[O-])=C(C[n+]3ccccc3)CS[C@H]12)c1csc(N)n1)C(=O)O [Ceftazidime, ceftazidime]
(S): susceptibility classification, HTFC (E. coli [1]; E. coli Mu76) | susceptibility classification, HTFC (E. coli [1]; E. coli Mu890) | susceptibility classification, BMD (E. coli [2]; E. coli Mu76) | susceptibility classification, BMD (E. coli [2]; E. coli Mu890) | susceptibility classification, HTFC (P. aeruginosa [3]; P. aeruginosa Blood Culture B, antibiotic 4 hours (37° C.)) | susceptibility classification, HTFC (P. aeruginosa [3]; P. aeruginosa Blood Culture C, antibiotic 4 hours (37° C.)) | susceptibility classification, HTFC (P. aeruginosa [3]; P. aeruginosa PA7, antibiotic 4 hours (37° C.)) | susceptibility classification, HTFC (P. aeruginosa [3]; P. aeruginosa PA46, antibiotic 4 hours (37° C.)) | susceptibility classification, HTFC (P. aeruginosa [3]; P. aeruginosa PA49, antibiotic 4 hours (37° C.)) | susceptibility classification, HTFC (P. aeruginosa [3]; P. aeruginosa PA81, antibiotic 4 hours (37° C.)) | susceptibility classification, HTFC (P. aeruginosa [3]; P. aeruginosa PAO1, antibiotic 4 hours (37° C.)) | susceptibility classification, BMD (P. aeruginosa [4]; P. aeruginosa Blood Culture B) | susceptibility classification, BMD (P. aeruginosa [4]; P. aeruginosa Blood Culture C) | susceptibility classification, BMD (P. aeruginosa [4]; P. aeruginosa PA46) | susceptibility classification, BMD (P. aeruginosa [4]; P. aeruginosa PA49) | susceptibility classification, BMD (P. aeruginosa [4]; P. aeruginosa PA81) | susceptibility classification, BMD (P. aeruginosa [4]; P. aeruginosa PAO1)
16 µg/mL: MIC (E. coli [1]; E. coli EC-bank) | MIC (E. coli [1]; E. coli Mu218) | MIC (E. coli [2]; E. coli Blood Culture A)
32 µg/mL: MIC (E. coli [1]; E. coli Blood Culture B) | MIC (E. coli [2]; E. coli EC37) | MIC (E. coli [2]; E. coli EC-bank) | MIC (E. coli [2]; E. coli Mu218)
1 µg/mL: MIC (E. coli [1]; E. coli Mu76) | MIC (P. aeruginosa [3]; PAO1, 4 h, P. aeruginosa PAO1, antibiotic 4 hours (37° C.)) | MIC (P. aeruginosa [4]; P. aeruginosa Blood Culture C) | MIC (P. aeruginosa [4]; P. aeruginosa PA46) | MIC (P. aeruginosa [4]; PAO1, P. aeruginosa PAO1)
8 µg/mL: MIC (E. coli [1]; E. coli Blood Culture A) | MIC (E. coli [1]; E. coli EC37) | MIC (P. aeruginosa [3]; 4 h, P. aeruginosa PA7, antibiotic 4 hours (37° C.)) | MIC (P. aeruginosa [3]; 4 h, P. aeruginosa PA81, antibiotic 4 hours (37° C.))
≤ 0.25 µg/mL: MIC (E. coli [1]; E. coli Mu890)
2 µg/mL: MIC (E. coli [2]; E. coli Mu76) | MIC (P. aeruginosa [3]; 4 h, P. aeruginosa Blood Culture C, antibiotic 4 hours (37° C.)) | MIC (P. aeruginosa [3]; 4 h, P. aeruginosa PA46, antibiotic 4 hours (37° C.)) | MIC (P. aeruginosa [4]; P. aeruginosa PA49)
4 µg/mL: MIC (P. aeruginosa [3]; 4 h, P. aeruginosa Blood Culture B, antibiotic 4 hours (37° C.)) | MIC (P. aeruginosa [3]; 4 h, P. aeruginosa PA49, antibiotic 4 hours (37° C.)) | MIC (P. aeruginosa [4]; P. aeruginosa Blood Culture B) | MIC (P. aeruginosa [4]; P. aeruginosa PA81)
128 µg/mL: MIC (P. aeruginosa [4]; P. aeruginosa PA7)
(I): susceptibility classification, HTFC (E. coli [1]; E. coli Blood Culture A) | susceptibility classification, HTFC (E. coli [1]; E. coli EC37)
(R): susceptibility classification, HTFC (E. coli [1]; E. coli Blood Culture B) | susceptibility classification, HTFC (E. coli [1]; E. coli EC-bank) | susceptibility classification, HTFC (E. coli [1]; E. coli Mu218) | susceptibility classification, BMD (E. coli [2]; E. coli Blood Culture A) | susceptibility classification, BMD (E. coli [2]; E. coli Blood Culture B) | susceptibility classification, BMD (E. coli [2]; E. coli EC37) | susceptibility classification, BMD (E. coli [2]; E. coli EC-bank) | susceptibility classification, BMD (E. coli [2]; E. coli Mu218) | susceptibility classification, BMD (P. aeruginosa [4]; P. aeruginosa PA7)
64 µg/mL: MIC (E. coli [2]; E. coli Blood Culture B)
0.5 µg/mL: MIC (E. coli [2]; E. coli Mu890)
